The text below walks through data of patent publication US20260007758A1, “SO[…]-2 RECEPTOR (SST2R) NON-PEPTIDE DRUG CONJUGATES AND USES THEREOF” (Crinetics Pharmaceuticals, Inc., priority 2024, published 2026).

pEC50: −log10 of the molar value.

What all share (assay type): cell-based
In one assay the target is T1, SST2 (Homo sapiens, UniProt P30874).
T1 construct: host or cells: PathHunter CHO-K1 SST2 cells
Description: PathHunter CHO-K1 SST2 Internalization Assay. Conditions: PathHunter CHO-K1 SST2 cells; 90 min at 37 C; luminescence; read-out: Internalization EC50. The method, boiled down: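 Four-parameter nonlinear fits of background-corrected luminescence (duplicate means) gave IC50s. NDCs were serially diluted 1:3 over 11 points from a 10 uM final top concentration and incubated 90 min at 37 C with human SST2 CHO-K1 cells plated 48 h earlier at 2500/well. Beta-Glo read-out developed 60 min at RT.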

Assay [1] addresses T2, human somatostatin receptor subtype 2 (Homo sapiens, UniProt P30874).
T2 construct: expressed in transfected cells
Description: Functional assay for SSTR2 agonists (HTRF cAMP). Conditions: CHO-K1 cells stably expressing human SST2; NKH477-stimulated cAMP; 20 min at 37 C; read-out: hSST2 cAMP Avg EC50. The method, boiled down: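 Agonist activity read as fall in intracellular cAMP: HTRF 665/620 nm ratio regressed to a cAMP standard curve, EC50 fitted. Stable human SSTR2 CHO-K1 cells exposed 20 min at 37 °C to compound, final concentrations typically 0-10,000 nM.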
For orientation: TR-FRET usually uses a lanthanide donor and a delayed reading to cut background.

In assay [2] the test system is NCI-H524 human small cell lung cancer cells. The experiment in a line: H524 assay: inhibition of cell proliferation (CellTiter Glo). Conditions: 2 h treatment, washout, additional 70 h incubation. The method, boiled down: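 Proliferation was measured by CellTiter Glo 70 h after a washout that followed a 2 h pulse of NDC. Doses were an 11-point, two-fold dilution series from 1 uM. IC50 was fitted with a four-parameter model to luminescence-based % inhibition relative to control cells.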
Background: Cellular ATP, detected with luciferase, serves as a proxy for viable cell number.

T2 sequence (P30874 whole entry): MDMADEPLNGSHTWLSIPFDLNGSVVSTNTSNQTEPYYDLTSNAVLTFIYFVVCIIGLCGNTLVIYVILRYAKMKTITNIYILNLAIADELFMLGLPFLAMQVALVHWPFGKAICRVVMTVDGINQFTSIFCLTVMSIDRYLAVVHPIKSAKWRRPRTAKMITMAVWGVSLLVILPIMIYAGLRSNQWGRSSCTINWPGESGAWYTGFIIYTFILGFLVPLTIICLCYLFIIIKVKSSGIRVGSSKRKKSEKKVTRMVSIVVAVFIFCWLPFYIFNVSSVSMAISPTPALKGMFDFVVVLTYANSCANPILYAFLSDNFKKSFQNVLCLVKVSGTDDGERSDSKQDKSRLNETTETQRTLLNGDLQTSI
T1 sequence (P30874 whole entry): as above

As a reminder, the pEC50 is the negative decadic logarithm of the EC50, by convention in mol/L. In the case of `CC[C@H](C)[C@@H]([C@@H](CC(=O)N1CCC[C@H]1[C@H](OC)[C@@H](C)C(=O)N[C@H](C)[C@@H](O)c1ccccc1)OC)N(C)C(=O)[C@@H](NC(=O)[C@H](C(C)C)N(C)C(=O)OCc1ccc(NC(=O)[C@H](CCCNC(N)=O)NC(=O)[C@@H](NC(=O)c2cc(NC(=O)CCCC(=O)N(C)CC(=O)NCCNc3ncc(-c4cc(C)cc(F)c4)c(N4CCC(N)CC4)c3-c3nc4ccc(F)cc4[nH]3)cc(C(=O)NCC(=O)O)c2)C(C)C)cc1)C(C)C` [Compound 169], the pEC50 at SST2 is 8.00; in assay [1], 10.00; in assay [2] it was 7.49.

For the molecule `CC[C@H](C)[C@@H]([C@@H](CC(=O)N1CCC[C@H]1[C@H](OC)[C@@H](C)C(=O)N[C@H](C)[C@@H](O)c1ccccc1)OC)N(C)C(=O)[C@@H](NC(=O)[C@H](C(C)C)N(C)C(=O)OCc1ccc(NC(=O)[C@H](C)NC(=O)[C@@H](NC(=O)[C@@H](CS(=O)(=O)O)NC(=O)CCOCCC(=O)NCCNc2ncc(-c3cc(C)cc(F)c3)c(N3CCC(N)CC3)c2-c2nc3ccc(Cl)cc3[nH]2)C(C)C)cc1C(=O)N1CC(C(=O)O)C1)C(C)C` [Compound 78], the pEC50 is 8.06 at SST2, 9.66 in assay [1] and 6.46 in assay [2].

For the molecule `CC[C@H](C)[C@@H]([C@@H](CC(=O)N1CCC[C@H]1[C@H](OC)[C@@H](C)C(=O)N[C@H](C)[C@@H](O)c1ccccc1)OC)N(C)C(=O)[C@@H](NC(=O)[C@H](C(C)C)N(C)C(=O)OCc1ccc(NC(=O)[C@H](CCCNC(N)=O)NC(=O)[C@@H](NC(=O)[C@H](CCC(=O)O)NC(=O)CCOCCOCCOCCOCCC(=O)NCCNc2ncc(-c3cc(C)cc(F)c3)c(N3CCC(N)CC3)c2-c2nc3ccc(Cl)cc3[nH]2)C(C)C)cc1C(=O)O)C(C)C` [Compound 3], the values for the pEC50 (on SST2; in assay [1]; in assay [2]) were 8.17, 9.72 and 6.17, respectively.

With `CC[C@H](C)[C@@H]([C@@H](CC(=O)N1CCC[C@H]1[C@H](OC)[C@@H](C)C(=O)N[C@H](C)[C@@H](O)c1ccccc1)OC)N(C)C(=O)[C@@H](NC(=O)[C@H](C(C)C)N(C)C(=O)OCc1ccc(NC(=O)[C@H](CCCNC(N)=O)NC(=O)[C@@H](NC(=O)c2cc(NCCOCCC(=O)NCCNc3ncc(-c4cc(C)cc(F)c4)c(N4CCC(N)CC4)c3-c3nc4cc(F)cc(OC)c4[nH]3)cc(C(=O)NCC(=O)O)c2)C(C)C)cc1)C(C)C` [Compound 166], the pEC50 on SST2 is 8.35; in assay [1] it was 9.54; in assay [2], 7.74.

Consider `CC[C@H](C)[C@@H]([C@@H](CC(=O)N1CCC[C@H]1[C@H](OC)[C@@H](C)C(=O)N[C@H](C)[C@@H](O)c1ccccc1)OC)N(C)C(=O)[C@@H](NC(=O)[C@H](C(C)C)N(C)C(=O)OCc1ccc(NC(=O)[C@H](C)NC(=O)[C@@H](NC(=O)CCOCCC(=O)NCCNc2ncc(-c3cc(C)cc(F)c3)c(N3CC[C@H]4NCCO[C@@H]4C3)c2-c2nc3c(F)cc(F)cc3[nH]2)C(C)C)c(O[C@@H]2O[C@H](C(=O)O)[C@@H](O)[C@H](O)[C@H]2O)c1)C(C)C` [Compound 114], for which the pEC50 on SST2 was 6.07; in assay [1], 7.07; in assay [2] it was 5.34.

As for `CC[C@H](C)[C@@H]([C@@H](CC(=O)N1CCC[C@H]1[C@H](OC)[C@@H](C)C(=O)N[C@H](C)[C@@H](O)c1ccccc1)OC)N(C)C(=O)[C@@H](NC(=O)[C@H](C(C)C)N(C)C(=O)OCc1ccc(NC(=O)[C@H](CCCNC(N)=O)NC(=O)[C@@H](NC(=O)[C@H](Cc2c[nH]c3ccccc23)NC(=O)CCOCCC(=O)NCCNc2ncc(-c3cc(C)cc(F)c3)c(N3CCC(N)CC3)c2-c2nc3ccc(Cl)cc3[nH]2)C(C)C)cc1C(=O)NCCN)C(C)C` [Compound 85], the pEC50 on SST2 is 8.44; in assay [1] it was 9.14; in assay [2], 7.14.

For `CC[C@H](C)[C@@H]([C@@H](CC(=O)N1CCC[C@H]1[C@H](OC)[C@@H](C)C(=O)N[C@H](C)[C@@H](O)c1ccccc1)OC)N(C)C(=O)[C@@H](NC(=O)[C@H](C(C)C)N(C)C(=O)OCc1ccc(NC(=O)[C@H](CCCNC(N)=O)NC(=O)C2(NC(=O)CCOCCC(=O)NCCNc3ncc(-c4cc(C)cc(F)c4)c(N4CCC(N)CC4)c3-c3nc4ccc(Cl)cc4[nH]3)CCC2)c(O[C@H]2O[C@H](C(=O)NCC(=O)O)[C@@H](O)[C@H](O)[C@H]2O)c1)C(C)C` [Compound 210], the pEC50 on SST2 is 8.55; in assay [1] it was 10.29; in assay [2] it was 5.64.

For `CC[C@H](C)[C@@H]([C@@H](CC(=O)N1CCC[C@H]1[C@H](OC)[C@@H](C)C(=O)N[C@H](C)[C@@H](O)c1ccccc1)OC)N(C)C(=O)[C@@H](NC(=O)[C@H](C(C)C)N(C)C(=O)OCc1ccc(NC(=O)[C@H](CCCNC(N)=O)NC(=O)[C@@H](NC(=O)c2cc(NCCOCCC(=O)NCCNc3ncc(-c4cc(C)cc(F)c4)c(N4CCC(N)CC4)c3-c3nc4ccc(Cl)cc4[nH]3)cc(C(=O)NCC(=O)S(N)(=O)=O)c2)C(C)C)cc1)C(C)C` [Compound 188], the pEC50 was 8.57 at SST2, 9.47 in assay [1] and 6.17 in assay [2].

Take `CC[C@H](C)[C@@H]([C@@H](CC(=O)N1CCC[C@H]1[C@H](OC)[C@@H](C)C(=O)N[C@H](C)[C@@H](O)c1ccccc1)OC)N(C)C(=O)[C@@H](NC(=O)[C@H](C(C)C)N(C)C(=O)OCc1ccc(NC(=O)[C@H](CCCNC(N)=O)NC(=O)[C@@H](NC(=O)C[C@@H](N)C(=O)NCCOCCC(=O)NCCNc2ncc(-c3cc(C)cc(F)c3)c(N3CCC(N)CC3)c2-c2nc3ccc(Cl)cc3[nH]2)C(C)C)c(CCC(=O)O)c1)C(C)C` [Compound 205]: the values for the pEC50 (on SST2; in assay [1]; in assay [2]) were 8.28, 10.07 and 7.43, respectively.

On to `CC[C@H](C)[C@@H]([C@@H](CC(=O)N1CCC[C@H]1[C@H](OC)[C@@H](C)C(=O)N[C@H](C)[C@@H](O)c1ccccc1)OC)N(C)C(=O)[C@@H](NC(=O)[C@H](C(C)C)N(C)C(=O)OCc1ccc(NC(=O)[C@H](CCCNC(N)=O)NC(=O)[C@@H](NC(=O)c2cc(OCCOCCC(=O)NCCNc3ncc(-c4cc(C)cc(F)c4)c(N4CCC(N)CC4)c3-c3nc4ccc(Cl)cc4[nH]3)cc(C(=O)NCC(=O)O)c2)C(C)C)cc1)C(C)C` [Compound 160], for which the pEC50 on SST2 is 8.13; in assay [1], 9.60; in assay [2], 7.00.

As for `CC[C@H](C)[C@@H]([C@@H](CC(=O)N1CCC[C@H]1[C@H](OC)[C@@H](C)C(=O)N[C@H](C)[C@@H](O)c1ccccc1)OC)N(C)C(=O)[C@@H](NC(=O)[C@H](C(C)C)N(C)C(=O)OCc1ccc(NC(=O)[C@H](CCCNC(N)=O)NC(=O)[C@@H](NC(=O)c2cc(NCCCCCC(=O)NCCNc3ncc(-c4cc(C)cc(F)c4)c(N4CCC(N)CC4)c3-c3nc4ccc(F)cc4[nH]3)cc(C(=O)NCC(=O)O)c2)C(C)C)cc1)C(C)C` [Compound 167], the figures for the pEC50 (at SST2; in assay [1]; in assay [2]) were 7.89, 9.62 and 6.82, respectively.

On to `CC[C@H](C)[C@@H]([C@@H](CC(=O)N1CCC[C@H]1[C@H](OC)[C@@H](C)C(=O)N[C@H](C)[C@@H](O)c1ccccc1)OC)N(C)C(=O)[C@@H](NC(=O)[C@H](C(C)C)N(C)C(=O)OCc1ccc(NC(=O)[C@H](CCCNC(N)=O)NC(=O)[C@@H](NC(=O)[C@H](CCC(=O)O)NC(=O)CCOCCC(=O)NCCNc2ncc(-c3cc(C)cc(F)c3)c(N3CCC(N)CC3)c2-c2nc3ccc(Cl)cc3[nH]2)C(C)C)cc1C(=O)NCCN(C)C)C(C)C` [Compound 64], for which the figures for the pEC50 (on SST2; in assay [1]; in assay [2]) were 8.54, 9.92 and 7.96, respectively.

On to `CC[C@H](C)[C@@H]([C@@H](CC(=O)N1CCC[C@H]1[C@H](OC)[C@@H](C)C(=O)N[C@H](C)[C@@H](O)c1ccccc1)OC)N(C)C(=O)[C@@H](NC(=O)[C@H](C(C)C)N(C)C(=O)OCc1ccc(NC(=O)[C@H](CCCNC(N)=O)NC(=O)[C@@H](NC(=O)[C@H](CCC(=O)O)NC(=O)CCOCCC(=O)NCCNc2ncc(-c3cc(C)cc(F)c3)c(N3CCC(N)CC3)c2-c2nc3ccc(Cl)cc3[nH]2)C(C)C)cc1C(=O)NOC)C(C)C` [Compound 89], for which the pEC50 is 8.44 on SST2, 9.24 in assay [1] and 5.96 in assay [2].

As for `CC[C@H](C)[C@@H]([C@@H](CC(=O)N1CCC[C@H]1[C@H](OC)[C@@H](C)C(=O)N[C@H](C)[C@@H](O)c1ccccc1)OC)N(C)C(=O)[C@@H](NC(=O)[C@H](C(C)C)N(C)C(=O)OCc1ccc(NC(=O)[C@H](C)NC(=O)[C@@H](NC(=O)CCOCCC(=O)N(C)CC(=O)NCCNc2ncc(-c3cc(C)cc(F)c3)c(N3CCC(N)CC3)c2-c2nc3ccc(Cl)cc3[nH]2)C(C)C)c(O[C@@H]2O[C@H](C(=O)NCCO)[C@@H](O)[C@H](O)[C@H]2O)c1)C(C)C` [Compound 206], the pEC50 on SST2 is 8.35; in assay [1] it was 9.92; in assay [2] it was 7.85.

In the case of `CC[C@H](C)[C@@H]([C@@H](CC(=O)N1CCC[C@H]1[C@H](OC)[C@@H](C)C(=O)N[C@H](C)[C@@H](O)c1ccccc1)OC)N(C)C(=O)[C@@H](NC(=O)[C@H](C(C)C)N(C)C(=O)OCc1ccc(NC(=O)[C@H](CCCNC(N)=O)NC(=O)[C@@H](NC(=O)Cn2cc(CCOCCC(=O)NCCNc3ncc(-c4cc(C)cc(F)c4)c(N4CCC(N)CC4)c3-c3nc4cc(Cl)ccc4[nH]3)nn2)C(C)C)c(O[C@@H]2O[C@H](C(=O)N3CCNCC3)[C@@H](O)[C@H](O)[C@H]2O)c1)C(C)C` [Compound 238], the pEC50 on SST2 was 8.33; in assay [1], 9.92; in assay [2], 8.54.
